Assay results as given in patent US9394539B1, “Survival motor neuron gene (SMN2) mRNA constructs for post-transcription regulation” (PTC Therapeutics, Inc., priority 2007, dated 2016).

How the values were obtained:
[1] = test system: 5′-UTR and 3′-UTR of the target SMN2 mRNA; experiment: Luciferase reporter gene screening assay in stable 293H cells (fLuc flanked by SMN2 5′-UTR and 3′-UTR); assay type: cell-based, human; settings: 7.5 μM test concentration, 24 hours, vs negative control (0.5% DMSO)
Experimental: Stable 293H cell lines containing the firefly luciferase (fLuc) gene flanked by one of SMN1 or SMN2 5′-UTR and 3′-UTR were cultured in DMEM medium supplemented with 10% FBS and 200 ug/mL hygromycin in Fisher T175 flasks. The cells were passaged every 4 days at 1:10 dilution. Cultures are kept in a 37° C. and 5% CO2 incubator. The cells were scaled-up over a three day period before performing the assay. Two confluent T175 flasks were split into twenty T175 flasks (1:10 dilution). Cells were harvested from each confluent flask by removing all of the media and adding 4 mL of warmed trypsin to dislodge the cells. After the cells were dislodged, 16 mL of selective media was added for a final volume of 20 mL. The cells were expanded by adding 2 mL of the harvested cells into ten new T175 flasks plus 25 ml, of selective media. The twenty new flasks are placed into the 37° C., 5% CO2 incubator. On the day the assay was performed, the media was removed from the flasks and 3 mL of warmed trypsin was added to dislodge the cells. After the cells were dislodged, 10 mL of nonselective media was to the flask. This was repeated for all twenty flasks and combined into one flask. 100 μL of the above cell culture plus 100 μL of Trypan Blue stain was counted on a hemocytometer. Cells were plated in the presence of 2 μL of a compound to be tested (at final concentration of 7.5 μM with 0.5% DMSO).
The firefly luciferase substrate used was Luc Lite Plus Packard #6016969. Luciferase activity was immediately assayed using a ViewLux Imaging system (Perkin Elmer).
The screening assay was performed by preparing a plates containing test compounds and controls, including wells that contained only vehicle or a high inhibitor concentration and wells that provided an 8-point dose response curve of puromycin, a non-specific standard control inhibitor. The cells were grown overnight in the presence of compounds or controls at 37° C. in 5% CO2. […] After 24 hours, the amount of luminescence was determined using a ViewLux Imaging system (Perkin Elmer). […]

[2] = CellTiter-Glo cytotoxicity assay, U937 cells; assay type: cell-based; settings: human, U937 monocyte cells, relatively sensitive cell line
Experimental: (§1) To evaluate cytotoxicity of the compounds in the neuroblastoma MC-IXC cell line, the CellTiter-Glo assay (Promega) was utilized. CellTiter-Glo determines the number of viable cells in culture based on quantification of the ATP present, which signals the presence of metabolically active cells. A reduction in cellular ATP is indicative of a cytotoxic or cytostatic effect. The compounds are tested in a 7-point dose response from 30 μM to 0.38 μM. Doxorubicin, a known cytotoxic compound, are used to address the sensitivity of the tested cell line. For relatively sensitive cell lines, such as U937 (a human monocyte cell line), the CC50 of doxorubicin ranges from 4 to 10 nM.

[3] = CellTiter-Glo cytotoxicity assay, MC-IXC cells; assay type: cell-based; settings: human, MC-IXC neuroblastoma cells, CellTiter-Glo (ATP)
Experimental: as §1

[4] = CellTiter-Glo cytotoxicity assay, Huh7 cells; assay type: cell-based; settings: human, Huh7 hepatoblastoma cells, intermediate level of sensitivity

Row | SMILES | Ratio (fold increase in target mRNA (SMN2) compared to negative control) [1] | CC50 [2] [nM] | CC50 [3] [nM] | CC50 [4] [nM]
1 | Cc1ccc2nc(-c3ccc(/N=C/c4ccc(Br)s4)cc3)sc2c1 [Cpd 1, (E)-N-((5-bromothiophen-2-yl)methylene)-4-(6-methylbenzo[d]thiazol-2-yl)aniline] | * (one star (*) represents active compounds with a fold increase ratio in a range greater than 1.3 up to 1.6) | – | – | –
2 | CC(C)(C)C(C)(O)C#Cc1ccccc1 (stereo not drawn) [Cpd 2, 3,4,4-trimethyl-1-phenylpent-1-yn-3-ol] | ** (two stars (**) represent active compounds with a fold increase ratio in a range greater than 1.6 up to 1.8) | – | – | –
3 | c1ccc(-n2ncc3c(NC4CCCCC4)ncnc32)cc1 [Cpd 4, N-cyclohexyl-1-phenyl-1H-pyrazolo[3,4-d]pyrimidin-4-amine] | ** (two stars (**) represent active compounds with a fold increase ratio in a range greater than 1.6 up to 1.8) | – | – | –
4 | COc1cccc2c1C(=O)c1c(O)c3c(c(O)c1C2=O)C[C@@](O)(C(=O)CO)C[C@@H]3O[C@H]1C[C@H](N)[C@H](O)[C@H](C)O1 [doxorubicin] | – | 4 to 10 | 12 | 70 to 300
